{"source": "paper PMC12621045", "about": "“Development of Purine and Pyrrolopyrimidine Scaffolds as Potent, Selective, and Brain Penetrant NUAK1 Inhibitors” (ACS Medicinal Chemistry Letters, 2025)", "assay_in_all_cases": "33P-ATP radiometric filter binding kinase panel", "key": {"[1]": {"molecular_target": "MAP4K3 (Homo sapiens, UniProt Q8IVH8)", "sequence (Q8IVH8 whole entry)": "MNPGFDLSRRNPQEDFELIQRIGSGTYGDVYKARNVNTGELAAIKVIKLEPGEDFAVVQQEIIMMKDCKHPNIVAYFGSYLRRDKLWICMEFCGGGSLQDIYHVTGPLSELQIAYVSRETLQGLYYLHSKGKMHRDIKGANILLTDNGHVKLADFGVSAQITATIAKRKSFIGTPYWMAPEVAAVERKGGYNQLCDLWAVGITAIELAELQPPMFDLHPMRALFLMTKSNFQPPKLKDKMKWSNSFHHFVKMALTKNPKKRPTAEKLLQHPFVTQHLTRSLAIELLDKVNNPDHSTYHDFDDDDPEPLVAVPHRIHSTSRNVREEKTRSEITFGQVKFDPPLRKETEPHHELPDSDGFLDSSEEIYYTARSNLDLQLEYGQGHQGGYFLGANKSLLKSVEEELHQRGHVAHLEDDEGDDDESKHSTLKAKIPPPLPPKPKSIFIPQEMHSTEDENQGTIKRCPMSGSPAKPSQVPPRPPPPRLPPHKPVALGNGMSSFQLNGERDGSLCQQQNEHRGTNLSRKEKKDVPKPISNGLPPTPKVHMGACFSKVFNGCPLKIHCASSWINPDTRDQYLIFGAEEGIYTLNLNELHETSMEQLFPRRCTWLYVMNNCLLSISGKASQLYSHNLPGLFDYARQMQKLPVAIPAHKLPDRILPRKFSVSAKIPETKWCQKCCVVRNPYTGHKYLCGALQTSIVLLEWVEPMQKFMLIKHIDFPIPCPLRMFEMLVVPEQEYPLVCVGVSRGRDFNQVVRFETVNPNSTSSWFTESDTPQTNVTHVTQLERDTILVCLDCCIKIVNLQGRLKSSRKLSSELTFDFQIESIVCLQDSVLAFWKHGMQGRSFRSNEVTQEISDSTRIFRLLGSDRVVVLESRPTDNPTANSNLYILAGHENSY", "conditions": "read-out: % activity remaining", "excerpt": "(§1) targets in radiometric filter binding assay using 33P-ATP at the MRC PPU International Centre for"}, "[2]": {"molecular_target": "RIPK2 (Homo sapiens, UniProt O43353)", "sequence (O43353 whole entry)": "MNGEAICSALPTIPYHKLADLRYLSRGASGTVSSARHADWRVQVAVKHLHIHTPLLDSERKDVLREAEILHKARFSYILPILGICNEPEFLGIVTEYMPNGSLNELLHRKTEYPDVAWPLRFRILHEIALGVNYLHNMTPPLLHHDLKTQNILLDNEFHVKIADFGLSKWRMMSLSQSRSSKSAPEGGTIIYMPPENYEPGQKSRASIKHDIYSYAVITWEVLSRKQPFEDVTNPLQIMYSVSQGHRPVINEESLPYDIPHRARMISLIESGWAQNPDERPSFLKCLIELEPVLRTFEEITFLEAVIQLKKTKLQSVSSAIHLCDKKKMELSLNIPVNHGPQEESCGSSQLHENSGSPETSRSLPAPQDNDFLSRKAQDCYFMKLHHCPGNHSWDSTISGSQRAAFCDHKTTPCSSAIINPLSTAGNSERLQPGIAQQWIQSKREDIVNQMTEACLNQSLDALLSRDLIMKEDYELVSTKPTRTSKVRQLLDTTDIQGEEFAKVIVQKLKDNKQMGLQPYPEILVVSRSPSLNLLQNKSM", "conditions": "read-out: % activity remaining"}, "[3]": {"molecular_target": "MKK2 (Homo sapiens, UniProt P36507)", "conditions": "read-out: % activity remaining"}, "[4]": {"molecular_target": "JNK1 (Homo sapiens, UniProt P45983)", "conditions": "read-out: % activity remaining", "excerpt": "as §1"}, "[5]": {"molecular_target": "TBK1 (Homo sapiens, UniProt Q9UHD2)", "conditions": "read-out: % activity remaining", "excerpt": "as §1"}, "[6]": {"molecular_target": "SmMLCK (Homo sapiens, UniProt Q15746)", "format": "biochemical"}, "[7]": {"molecular_target": "DYRK1A (Homo sapiens, UniProt Q13627)", "conditions": "read-out: % activity remaining", "excerpt": "as §1"}, "[8]": {"molecular_target": "ERK5 (Homo sapiens, UniProt Q13164)", "conditions": "read-out: % activity remaining", "excerpt": "as §1"}, "[9]": {"molecular_target": "PLK1 (Homo sapiens, UniProt P53350)", "conditions": "read-out: % activity remaining"}, "[10]": {"molecular_target": "MPSK1 (Homo sapiens, UniProt O75716)", "conditions": "read-out: % activity remaining", "excerpt": "as §1\nKinase activity s.d. pIC50 activity s.d. pIC50"}, "[11]": {"molecular_target": "DDR2 (Homo sapiens, UniProt Q16832)", "conditions": "read-out: % activity remaining", "excerpt": "as §1"}, "[12]": {"molecular_target": "MARK2 (Homo sapiens, UniProt Q7KZI7)", "conditions": "read-out: % activity remaining", "excerpt": "as §1"}, "[13]": {"molecular_target": "TTBK2 (Homo sapiens, UniProt Q6IQ55)", "conditions": "read-out: % activity remaining", "excerpt": "as §1"}, "[14]": {"molecular_target": "p38b MAPK (Homo sapiens, UniProt Q15759)", "conditions": "read-out: % activity remaining", "excerpt": "as §1"}, "[15]": {"molecular_target": "EPH-B1 (Homo sapiens, UniProt P54762)", "conditions": "read-out: % activity remaining", "excerpt": "as §1"}, "[16]": {"molecular_target": "ROCK 2 (Homo sapiens, UniProt O75116)", "conditions": "read-out: % activity remaining"}, "[17]": {"molecular_target": "EF2K (Homo sapiens, UniProt O00418)", "conditions": "read-out: % activity remaining"}, "[18]": {"molecular_target": "PKCz (Homo sapiens, UniProt Q05513)", "sequence (Q05513 whole entry)": "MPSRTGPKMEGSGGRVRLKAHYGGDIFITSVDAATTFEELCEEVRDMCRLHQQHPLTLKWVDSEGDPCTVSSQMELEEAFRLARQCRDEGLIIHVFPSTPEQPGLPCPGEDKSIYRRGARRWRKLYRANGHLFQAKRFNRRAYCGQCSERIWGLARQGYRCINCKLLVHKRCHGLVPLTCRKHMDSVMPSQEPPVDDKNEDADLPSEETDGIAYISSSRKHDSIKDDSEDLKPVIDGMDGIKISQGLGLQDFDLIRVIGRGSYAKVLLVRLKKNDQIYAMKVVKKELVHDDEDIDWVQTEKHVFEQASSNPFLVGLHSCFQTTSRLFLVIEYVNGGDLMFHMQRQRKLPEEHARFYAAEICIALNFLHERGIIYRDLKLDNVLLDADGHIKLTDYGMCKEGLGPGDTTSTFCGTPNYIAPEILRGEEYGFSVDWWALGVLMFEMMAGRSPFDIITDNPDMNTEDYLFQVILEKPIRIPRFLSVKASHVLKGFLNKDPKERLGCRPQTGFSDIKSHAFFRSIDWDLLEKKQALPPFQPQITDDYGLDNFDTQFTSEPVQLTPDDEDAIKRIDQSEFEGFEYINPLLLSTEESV", "conditions": "read-out: % activity remaining"}, "[19]": {"molecular_target": "CK1δ (Homo sapiens, UniProt P48730)", "conditions": "read-out: % activity remaining", "excerpt": "as §1"}, "[20]": {"molecular_target": "TAO1 (Homo sapiens, UniProt Q7L7X3)", "sequence (Q7L7X3 whole entry)": "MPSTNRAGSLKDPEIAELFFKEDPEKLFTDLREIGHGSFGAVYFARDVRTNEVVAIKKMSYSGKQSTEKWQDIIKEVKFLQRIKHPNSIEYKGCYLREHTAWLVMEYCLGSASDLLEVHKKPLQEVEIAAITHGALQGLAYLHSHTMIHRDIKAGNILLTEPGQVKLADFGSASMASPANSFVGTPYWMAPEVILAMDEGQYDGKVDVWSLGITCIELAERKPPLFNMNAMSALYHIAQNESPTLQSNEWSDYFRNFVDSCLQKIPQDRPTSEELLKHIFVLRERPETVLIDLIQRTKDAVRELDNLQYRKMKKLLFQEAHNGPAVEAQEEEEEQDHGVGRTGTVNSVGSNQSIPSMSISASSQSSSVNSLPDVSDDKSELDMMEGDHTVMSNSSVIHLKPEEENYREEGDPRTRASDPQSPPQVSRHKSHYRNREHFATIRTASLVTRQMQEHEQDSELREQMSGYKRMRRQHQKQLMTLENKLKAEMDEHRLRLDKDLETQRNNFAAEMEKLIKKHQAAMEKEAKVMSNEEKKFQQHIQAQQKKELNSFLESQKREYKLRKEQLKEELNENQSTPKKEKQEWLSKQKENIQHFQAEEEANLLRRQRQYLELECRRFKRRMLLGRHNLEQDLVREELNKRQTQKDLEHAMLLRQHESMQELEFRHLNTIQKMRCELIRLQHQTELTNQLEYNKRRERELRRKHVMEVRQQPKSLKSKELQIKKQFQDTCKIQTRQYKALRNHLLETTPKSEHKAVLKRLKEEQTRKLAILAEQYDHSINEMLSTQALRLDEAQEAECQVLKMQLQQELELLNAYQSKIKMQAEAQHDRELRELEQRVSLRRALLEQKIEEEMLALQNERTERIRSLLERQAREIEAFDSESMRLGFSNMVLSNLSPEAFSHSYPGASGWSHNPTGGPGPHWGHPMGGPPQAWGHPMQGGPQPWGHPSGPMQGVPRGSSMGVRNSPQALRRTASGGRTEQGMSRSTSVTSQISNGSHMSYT", "conditions": "read-out: % activity remaining"}, "[21]": {"molecular_target": "MNK1 (Homo sapiens, UniProt Q9BUB5)", "conditions": "read-out: % activity remaining"}, "[22]": {"molecular_target": "Aurora A (Homo sapiens, UniProt O14965)", "conditions": "read-out: % activity remaining"}, "[23]": {"molecular_target": "MAPKAP-K2 (Homo sapiens, UniProt P49137)", "sequence (P49137 whole entry)": "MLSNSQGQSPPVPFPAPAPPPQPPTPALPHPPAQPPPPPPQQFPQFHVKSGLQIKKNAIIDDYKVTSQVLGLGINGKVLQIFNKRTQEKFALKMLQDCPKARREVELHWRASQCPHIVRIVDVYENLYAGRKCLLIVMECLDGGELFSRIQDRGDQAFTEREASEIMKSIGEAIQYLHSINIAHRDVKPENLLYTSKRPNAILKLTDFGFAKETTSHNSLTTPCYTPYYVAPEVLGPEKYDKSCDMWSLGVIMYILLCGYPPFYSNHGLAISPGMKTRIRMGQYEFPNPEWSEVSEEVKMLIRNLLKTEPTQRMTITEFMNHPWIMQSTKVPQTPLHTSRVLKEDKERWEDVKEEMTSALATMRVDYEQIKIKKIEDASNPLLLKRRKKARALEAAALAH", "conditions": "read-out: % activity remaining", "excerpt": "as §1"}, "[24]": {"molecular_target": "NEK2a (Homo sapiens, UniProt P51955)", "conditions": "read-out: % activity remaining"}, "[25]": {"molecular_target": "BRSK2 (Homo sapiens, UniProt Q8IWQ3)", "sequence (Q8IWQ3 whole entry, species assumed)": "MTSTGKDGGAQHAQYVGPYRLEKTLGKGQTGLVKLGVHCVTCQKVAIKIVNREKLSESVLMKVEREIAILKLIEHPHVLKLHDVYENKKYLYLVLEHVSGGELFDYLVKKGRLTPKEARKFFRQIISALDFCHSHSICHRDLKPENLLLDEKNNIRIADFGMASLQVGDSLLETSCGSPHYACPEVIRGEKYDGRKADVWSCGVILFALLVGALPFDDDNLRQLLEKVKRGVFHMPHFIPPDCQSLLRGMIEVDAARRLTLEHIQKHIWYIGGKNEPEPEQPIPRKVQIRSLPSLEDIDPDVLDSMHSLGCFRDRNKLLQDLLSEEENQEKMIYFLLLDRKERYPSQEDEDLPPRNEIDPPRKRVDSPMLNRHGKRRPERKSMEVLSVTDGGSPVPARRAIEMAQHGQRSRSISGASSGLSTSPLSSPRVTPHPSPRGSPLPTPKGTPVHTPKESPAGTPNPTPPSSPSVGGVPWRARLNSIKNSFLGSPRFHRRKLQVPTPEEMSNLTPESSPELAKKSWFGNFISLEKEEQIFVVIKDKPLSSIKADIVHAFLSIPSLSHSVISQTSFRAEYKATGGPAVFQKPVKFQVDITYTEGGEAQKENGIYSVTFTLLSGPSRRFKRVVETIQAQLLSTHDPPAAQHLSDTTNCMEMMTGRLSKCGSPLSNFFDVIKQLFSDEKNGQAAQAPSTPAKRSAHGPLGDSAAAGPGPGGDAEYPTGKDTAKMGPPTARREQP", "conditions": "read-out: % activity remaining", "excerpt": "as §1"}, "[26]": {"molecular_target": "p38g MAPK (Homo sapiens, UniProt P53778)", "conditions": "read-out: % activity remaining", "excerpt": "as §1"}, "[27]": {"molecular_target": "CDK9-Cyclin T1 (Homo sapiens, UniProt P50750)", "conditions": "read-out: % activity remaining"}, "[28]": {"test_system": "AMPK (hum)", "conditions": "1 μM"}, "[29]": {"molecular_target": "PIM1 (Homo sapiens, UniProt P11309)", "conditions": "read-out: % activity remaining", "excerpt": "as §1"}, "[30]": {"molecular_target": "SRPK1 (Homo sapiens, UniProt Q96SB4)", "sequence (Q96SB4 whole entry)": "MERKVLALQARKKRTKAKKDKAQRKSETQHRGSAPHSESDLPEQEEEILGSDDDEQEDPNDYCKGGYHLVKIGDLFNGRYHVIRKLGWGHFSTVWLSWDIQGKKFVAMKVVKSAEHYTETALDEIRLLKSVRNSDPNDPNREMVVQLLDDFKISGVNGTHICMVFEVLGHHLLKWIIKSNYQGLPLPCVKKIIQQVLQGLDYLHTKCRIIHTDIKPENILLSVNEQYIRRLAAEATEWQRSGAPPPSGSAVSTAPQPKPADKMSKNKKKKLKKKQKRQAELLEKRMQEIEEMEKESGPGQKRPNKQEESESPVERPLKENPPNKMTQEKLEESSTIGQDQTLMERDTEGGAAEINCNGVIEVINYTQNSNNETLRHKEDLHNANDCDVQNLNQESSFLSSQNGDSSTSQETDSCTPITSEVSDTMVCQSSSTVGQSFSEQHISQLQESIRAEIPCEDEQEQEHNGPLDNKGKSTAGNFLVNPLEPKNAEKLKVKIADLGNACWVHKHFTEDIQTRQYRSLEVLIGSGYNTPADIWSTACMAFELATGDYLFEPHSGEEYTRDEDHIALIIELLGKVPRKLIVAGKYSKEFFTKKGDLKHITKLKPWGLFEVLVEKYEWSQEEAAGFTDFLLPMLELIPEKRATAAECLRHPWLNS", "conditions": "read-out: % activity remaining"}}, "data": [{"smiles": "CC(C)N1CCN(c2ccc(Nc3nc(OCC4CCOC(C)(C)C4)c4nc[nH]c4n3)cc2)CC1", "note": "(stereo not drawn) [Compound 20]", "values": [{"measurement": "remaining activity at 1 µM", "setting": "[1]", "value": 71, "unit": "%"}, {"measurement": "remaining activity at 1 µM", "setting": "[2]", "value": 48, "unit": "%"}, {"measurement": "remaining activity at 1 µM", "setting": "[3]", "value": 88, "unit": "%"}, {"measurement": "remaining activity at 1 µM", "setting": "[4]", "value": 38, "unit": "%"}, {"measurement": "remaining activity at 1 µM", "setting": "[5]", "value": 27, "unit": "%"}, {"measurement": "remaining activity at 1 µM", "setting": "[6]", "value": 91, "unit": "%"}, {"measurement": "remaining activity at 1 µM", "setting": "[7]", "value": 92, "unit": "%"}, {"measurement": "remaining activity at 1 µM", "setting": "[8]", "value": 93, "unit": "%"}, {"measurement": "remaining activity at 1 µM", "setting": "[9]", "value": 107, "unit": "%"}, {"measurement": "remaining activity at 1 µM", "setting": "[10]", "value": 97, "unit": "%"}, {"measurement": "remaining activity at 1 µM", "setting": "[11]", "value": 29, "unit": "%"}, {"measurement": "remaining activity at 1 µM", "setting": "[12]", "value": 44, "unit": "%"}, {"measurement": "remaining activity at 1 µM", "setting": "[13]", "value": 103, "unit": "%"}, {"measurement": "remaining activity at 1 µM", "setting": "[14]", "value": 82, "unit": "%"}, {"measurement": "remaining activity at 1 µM", "setting": "[15]", "value": 73, "unit": "%"}, {"measurement": "remaining activity at 1 µM", "setting": "[16]", "value": 36, "unit": "%"}, {"measurement": "remaining activity at 1 µM", "setting": "[17]", "value": 101, "unit": "%"}, {"measurement": "remaining activity at 1 µM", "setting": "[18]", "value": 106, "unit": "%"}, {"measurement": "remaining activity at 1 µM", "setting": "[19]", "value": 101, "unit": "%"}, {"measurement": "remaining activity at 1 µM", "setting": "[20]", "value": 94, "unit": "%"}, {"measurement": "remaining activity at 1 µM", "setting": "[21]", "value": 101, "unit": "%"}, {"measurement": "remaining activity at 1 µM", "setting": "[22]", "value": 40, "unit": "%"}, {"measurement": "remaining activity at 1 µM", "setting": "[23]", "value": 102, "unit": "%"}, {"measurement": "remaining activity at 1 µM", "setting": "[24]", "value": 78, "unit": "%"}, {"measurement": "remaining activity at 1 µM", "setting": "[25]", "value": 117, "unit": "%"}, {"measurement": "remaining activity at 1 µM", "setting": "[26]", "value": 97, "unit": "%"}, {"measurement": "remaining activity at 1 µM", "setting": "[27]", "value": 94, "unit": "%"}, {"measurement": "% activity remaining", "setting": "[28]", "value": 25, "unit": "%"}, {"measurement": "remaining activity at 1 µM", "setting": "[29]", "value": 85, "unit": "%"}, {"measurement": "remaining activity at 1 µM", "setting": "[30]", "value": 114, "unit": "%"}]}, {"smiles": "CC(C)N1CCN(c2ccc(Nc3nc(OCC4CC4)c4cc[nH]c4n3)cc2)CC1", "note": "[Compound 23]", "values": [{"measurement": "remaining activity at 1 µM", "setting": "[1]", "value": 11, "unit": "%"}, {"measurement": "remaining activity at 1 µM", "setting": "[2]", "value": 77, "unit": "%"}, {"measurement": "remaining activity at 1 µM", "setting": "[3]", "value": 99, "unit": "%"}, {"measurement": "remaining activity at 1 µM", "setting": "[4]", "value": 23, "unit": "%"}, {"measurement": "remaining activity at 1 µM", "setting": "[5]", "value": 46, "unit": "%"}, {"measurement": "remaining activity at 1 µM", "setting": "[6]", "value": 37, "unit": "%"}, {"measurement": "remaining activity at 1 µM", "setting": "[7]", "value": 53, "unit": "%"}, {"measurement": "remaining activity at 1 µM", "setting": "[8]", "value": 82, "unit": "%"}, {"measurement": "remaining activity at 1 µM", "setting": "[9]", "value": 94, "unit": "%"}, {"measurement": "remaining activity at 1 µM", "setting": "[10]", "value": 77, "unit": "%"}, {"measurement": "remaining activity at 1 µM", "setting": "[11]", "value": 39, "unit": "%"}, {"measurement": "remaining activity at 1 µM", "setting": "[12]", "value": 23, "unit": "%"}, {"measurement": "remaining activity at 1 µM", "setting": "[13]", "value": 105, "unit": "%"}, {"measurement": "remaining activity at 1 µM", "setting": "[14]", "value": 111, "unit": "%"}, {"measurement": "remaining activity at 1 µM", "setting": "[15]", "value": 102, "unit": "%"}, {"measurement": "remaining activity at 1 µM", "setting": "[16]", "value": 25, "unit": "%"}, {"measurement": "remaining activity at 1 µM", "setting": "[17]", "value": 113, "unit": "%"}, {"measurement": "remaining activity at 1 µM", "setting": "[18]", "value": 123, "unit": "%"}, {"measurement": "remaining activity at 1 µM", "setting": "[19]", "value": 24, "unit": "%"}, {"measurement": "remaining activity at 1 µM", "setting": "[20]", "value": 46, "unit": "%"}, {"measurement": "remaining activity at 1 µM", "setting": "[21]", "value": 106, "unit": "%"}, {"measurement": "remaining activity at 1 µM", "setting": "[22]", "value": 31, "unit": "%"}, {"measurement": "remaining activity at 1 µM", "setting": "[23]", "value": 104, "unit": "%"}, {"measurement": "remaining activity at 1 µM", "setting": "[24]", "value": 73, "unit": "%"}, {"measurement": "remaining activity at 1 µM", "setting": "[25]", "value": 90, "unit": "%"}, {"measurement": "remaining activity at 1 µM", "setting": "[26]", "value": 97, "unit": "%"}, {"measurement": "remaining activity at 1 µM", "setting": "[27]", "value": 110, "unit": "%"}, {"measurement": "% activity remaining", "setting": "[28]", "value": 6, "unit": "%"}, {"measurement": "remaining activity at 1 µM", "setting": "[29]", "value": 94, "unit": "%"}, {"measurement": "remaining activity at 1 µM", "setting": "[30]", "value": 103, "unit": "%"}]}]}
